Measured values from PubChem BioAssay AID1259407 (Chemical Carcinogenesis Research Information System (CCRIS), 2018).
Calls of active or inactive are those of the source. No rule for the calls is given here.

Tested on: CCRIS mutagenicity, Ames/micronucleus/aberration tests
Assay: CCRIS mutagenicity studies
[1] = Test System: AMES SALMONELLA TYPHIMURIUM, Strain/Indicator: TA98, Metabolic Activation: NONE, Method: PREINCUBATION

CCOC(N)=O
mutagenic call (End Point: IN VITRO MICRONUCLEUS, Test System: CHL/IU CELLS, Metabolic Activation: RAT, LIVER, S-9, PHENOBARBITAL AND 5,6-BENZOFLAVONE): inactive; negative
mutagenic call (End Point: IN VITRO MICRONUCLEUS, Test System: V79 CELLS, Metabolic Activation: NONE): inactive; negative
mutagenic call (End Point: IN VIVO MICRONUCLEUS, Test System: BLOOD PERIPHERAL POLYCHROMATIC AND NORMOCHROMATIC ERYTHROCYTES, Species: MICE, Strain/Sex: CYP2E1+/+ WILD TYPE/MALE, Route: ORAL (GAVAGE)): active; positive for both types of cells
mutagenic call (End Point: IN VIVO MICRONUCLEUS, Test System: BLOOD PERIPHERAL POLYCHROMATIC AND NORMOCHROMATIC ERYTHROCYTES, Species: MOUSE, Strain/Sex: CYP2E1-/- KO (KNOCKOUT)/MALE, Route: ORAL (GAVAGE)): inactive; negative for nce; equivocal for pce
mutagenic call (End Point: IN VIVO MICRONUCLEUS, Test System: ERYTHROCYTES, Species: MOUSE, Strain/Sex: WILD-TYPE (CYP2E1+/+, WT)/MALE, Route: GAVAGE): active; positive; significant dose-dependent increase in both polychromatic and normochr
mutagenic call (End Point: IN VIVO MICRONUCLEUS, Test System: PERIPHERAL BLOOD ERYTHROCYTES, Species: MOUSE, Strain/Sex: KNOCK OUT (CYP2E1-/-, KO)/MALE, Route: GAVAGE): inactive; negative (normochromatic erythrocytes); authors described results in polychromat
mutagenic call (Test System: AMES SALMONELLA TYPHIMURIUM, Strain/Indicator: TA97, Metabolic Activation: HAMSTER, LIVER, S-9, AROCLOR 1254 (30%), Method: PREINCUBATION): inactive; negative
mutagenic call (Test System: AMES SALMONELLA TYPHIMURIUM, Strain/Indicator: TA97, Metabolic Activation: NONE, Method: PREINCUBATION): inactive; negative
mutagenic call (Test System: AMES SALMONELLA TYPHIMURIUM, Strain/Indicator: TA97, Metabolic Activation: RAT, LIVER, S-9, AROCLOR 1254 (30%), Method: PREINCUBATION): inactive; negative
mutagenic call (Test System: AMES SALMONELLA TYPHIMURIUM, Strain/Indicator: TA98, Metabolic Activation: HAMSTER, LIVER, S-9, AROCLOR 1254 (30%), Method: PREINCUBATION): inactive; negative
mutagenic call [1]: inactive; negative
mutagenic call (Test System: AMES SALMONELLA TYPHIMURIUM, Strain/Indicator: TA98, Metabolic Activation: RAT LIVER S-9, AROCLOR 1254, Method: PREINCUBATION): inactive; negative
mutagenic call (Test System: AMES SALMONELLA TYPHIMURIUM, Strain/Indicator: TA98, Metabolic Activation: RAT, LIVER, S-9, AROCLOR 1254 (30%), Method: PREINCUBATION): inactive; negative
mutagenic call (Test System: AMES SALMONELLA TYPHIMURIUM, Strain/Indicator: TA98, Metabolic Activation: RAT, LIVER, S-9, ETHANOL, Method: PREINCUBATION): inactive; negative
mutagenic call (Test System: AMES SALMONELLA TYPHIMURIUM, Strain/Indicator: TA98, Metabolic Activation: RAT, LIVER, S-9, PYRAZOLE, Method: PREINCUBATION): inactive; negative
mutagenic call (Test System: AMES SALMONELLA TYPHIMURIUM, Strain/Indicator: TA98, Metabolic Activation: RAT, LIVER, S-9, Method: STANDARD PLATE): inactive; negative
mutagenic call (Test System: AMES SALMONELLA TYPHIMURIUM, Strain/Indicator: TA100, Metabolic Activation: HAMSTER, LIVER, S-9, AROCLOR 1254 (5, 10 OR 30%), Method: PREINCUBATION): inactive; negative
mutagenic call (Test System: AMES SALMONELLA TYPHIMURIUM, Strain/Indicator: TA100, Metabolic Activation: NONE, Method: PREINCUBATION): inactive; negative
mutagenic call (Test System: AMES SALMONELLA TYPHIMURIUM, Strain/Indicator: TA100, Metabolic Activation: RAT LIVER S-9, AROCLOR 1254, Method: PREINCUBATION): inactive; negative
mutagenic call (Test System: AMES SALMONELLA TYPHIMURIUM, Strain/Indicator: TA100, Metabolic Activation: RAT, LIVER, S-9, AROCLOR 1254 (5, 10 OR 30%), Method: PREINCUBATION): inactive; negative
mutagenic call (Test System: AMES SALMONELLA TYPHIMURIUM, Strain/Indicator: TA100, Metabolic Activation: RAT, LIVER, S-9, ETHANOL, Method: PREINCUBATION): inactive; negative
mutagenic call (Test System: AMES SALMONELLA TYPHIMURIUM, Strain/Indicator: TA100, Metabolic Activation: RAT, LIVER, S-9, PYRAZOLE, Method: PREINCUBATION): inactive; negative
mutagenic call (Test System: AMES SALMONELLA TYPHIMURIUM, Strain/Indicator: TA100, Metabolic Activation: RAT, LIVER, S-9, Method: STANDARD PLATE): inactive; negative
mutagenic call (Test System: AMES SALMONELLA TYPHIMURIUM, Strain/Indicator: TA102, Metabolic Activation: NONE, Method: PREINCUBATION): inactive; negative
mutagenic call (Test System: AMES SALMONELLA TYPHIMURIUM, Strain/Indicator: TA102, Metabolic Activation: RAT LIVER S-9, AROCLOR 1254, Method: PREINCUBATION): inactive; negative
mutagenic call (Test System: AMES SALMONELLA TYPHIMURIUM, Strain/Indicator: TA102, Metabolic Activation: RAT LIVER S-9, PHENOBARBITAL AND 5,6-BENZOFLAVONE, Method: STANDARD PLATE): inactive; negative
mutagenic call (Test System: AMES SALMONELLA TYPHIMURIUM, Strain/Indicator: TA102, Metabolic Activation: RAT, LIVER, S-9, ETHANOL, Method: PREINCUBATION): inactive; negative
mutagenic call (Test System: AMES SALMONELLA TYPHIMURIUM, Strain/Indicator: TA102, Metabolic Activation: RAT, LIVER, S-9, PYRAZOLE, Method: PREINCUBATION): inactive; negative
mutagenic call (Test System: AMES SALMONELLA TYPHIMURIUM, Strain/Indicator: TA1535, Metabolic Activation: HAMSTER, LIVER, S-9, AROCLOR 1254 (30%), Method: PREINCUBATION): active; positive
mutagenic call (Test System: AMES SALMONELLA TYPHIMURIUM, Strain/Indicator: TA1535, Metabolic Activation: NONE, Method: PREINCUBATION): inactive; negative
mutagenic call (Test System: AMES SALMONELLA TYPHIMURIUM, Strain/Indicator: TA1535, Metabolic Activation: RAT, LIVER, S-9, AROCLOR 1254 (5 OR 10%), Method: PREINCUBATION): inactive; negative
mutagenic call (Test System: AMES SALMONELLA TYPHIMURIUM, Strain/Indicator: TA1535, Metabolic Activation: RAT, LIVER, S-9, AROCLOR 1254 (30%), Method: PREINCUBATION): inactive; negative
mutagenic call (Test System: AMES SALMONELLA TYPHIMURIUM, Strain/Indicator: TA1535, Metabolic Activation: RAT, LIVER, S-9, ETHANOL, Method: PREINCUBATION): inactive; negative
mutagenic call (Test System: AMES SALMONELLA TYPHIMURIUM, Strain/Indicator: TA1535, Metabolic Activation: RAT, LIVER, S-9, PYRAZOLE, Method: PREINCUBATION): inactive; negative
mutagenic call (Test System: AMES SALMONELLA TYPHIMURIUM, Strain/Indicator: TA1537, Metabolic Activation: HAMSTER, LIVER, S-9, AROCLOR 1254 (30%), Method: PREINCUBATION): inactive; negative
mutagenic call (Test System: AMES SALMONELLA TYPHIMURIUM, Strain/Indicator: TA1537, Metabolic Activation: NONE, Method: PREINCUBATION): inactive; negative
mutagenic call (Test System: AMES SALMONELLA TYPHIMURIUM, Strain/Indicator: TA1537, Metabolic Activation: RAT, LIVER, S-9, AROCLOR 1254 (30%), Method: PREINCUBATION): inactive; negative
mutagenic call (Test System: AMES SALMONELLA TYPHIMURIUM, Strain/Indicator: TA1537, Metabolic Activation: RAT, LIVER, S-9, PYRAZOLE, Method: PREINCUBATION): inactive; negative
mutagenic call (Test System: AMES SALMONELLA TYPHIMURIUM, Strain/Indicator: TA2638, Metabolic Activation: RAT LIVER S-9, PHENOBARBITAL AND 5,6-BENZOFLAVONE, Method: STANDARD PLATE): inactive; negative
mutagenic call (Test System: Ames Salmonella typhimurium, Strain/Indicator: YG7108pin3ERb5, Metabolic Activation: None, Method: Standard plate): inactive; negative
mutagenic call (Test System: E. COLI, Strain/Indicator: WP2 (PKM101), Metabolic Activation: RAT LIVER S-9, PHENOBARBITAL AND 5,6-BENZOFLAVONE, Method: STANDARD PLATE): inactive; negative
mutagenic call (Test System: E. COLI, Strain/Indicator: WP2 UVRA (PKM101), Metabolic Activation: RAT LIVER S-9, PHENOBARBITAL AND 5,6-BENZOFLAVONE, Method: STANDARD PLATE): inactive; negative
mutagenic call (Test System: E. COLI, Strain/Indicator: WP2 UVRA, Metabolic Activation: NONE, Method: FLUCTUATION TEST): inactive; negative
mutagenic call (Test System: MOUSE LYMPHOMA, Strain/Indicator: L5178Y (TK+/TK-), Metabolic Activation: NONE, Method: MICROWELL): inactive; negative
mutagenic call (Test System: MOUSE LYMPHOMA, Strain/Indicator: L5178Y (TK+/TK-), Metabolic Activation: S-9, Method: MICROWELL): inactive; negative
mutagenic call (Test System: UDS MOUSE SPERMATIDS, Strain/Indicator: THY INCORP, Metabolic Activation: NONE): active; positive

Cc1cc([N+](=O)[O-])cc2ccccc12
mutagenic call [1]: active; positive
